Results: patent publication US9120804B2, “8-substituted 2-amino-[1,2,4] triazolo [1, 5-A] pyrazines as Syk tryrosine kinase inhibitors and GCN2 serin kinase inhibitors” (Merck Patent GmbH, priority 2012, dated 2015)

Biological target: T1, SYK (Homo sapiens, UniProt P43405)
T1 construct: 2.5 nM SYK, 400 nM Biotin-Aha-Aha-KEDPDYEWPSAKK
Experiment: SYK flash plate assay (enzyme assay)
Assay type: biochemical
How it was run: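 Radiometric Flashplate format: biotinylated peptide substrate (400 nM) and 33P-labelled ATP (10 μM) react with 2.5 nM enzyme for 1 hour at 30 °C in Hepes buffer, pH 7.5. After EDTA quench and washing, counts are taken; staurosporine defines non-specific signal, and IC50 values are derived.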

Row | IC50 [nM] | SMILES
1 | < 100 | CC1(C)C(=O)Nc2cc(Nc3nc4c(N5CCCNCC5)nccn4n3)ccc21 [E68, 6-(8-[1,4]diazepan-1-yl-[1,2,4]triazolo[1,5-a]pyrazin-2-ylamino)-3,3-dimethyl-1,3-dihydro-indol-2-one]
2 | < 100 | Cn1cc(-c2nccn3nc(Nc4ccc5c(c4)NC(=O)C54CCC4)nc23)cn1 [E8, 6′-[[8-(1-methylpyrazol-4-yl)-[1,2,4]triazolo[1,5-a]pyrazin-2-yl]amino]spiro[cyclobutane-1,3′-indoline]-2′-one]
3 | < 100 | CC1(C)C(=O)Nc2cc(Nc3nc4c(N5CCC6(CCNC6=O)CC5)nccn4n3)ccc21 [E13, 8-[2-(3,3-dimethyl-2-oxo-2,3-dihydro-1H-indol-6-ylamino)-[1,2,4]triazolo[1,5-a]pyrazin-8-yl]-2,8-diaza-spiro[4.5]decan-1-one]
4 | < 100 | CC1(C)C(=O)Nc2cc(Nc3nc4c(N[C@H]5CC[C@@H](O)CC5)nccn4n3)ccc21 [C75, cis-6-[8-(4-hydroxy-cyclohexylamino)-[1,2,4]triazolo[1,5-a]pyrazin-2-ylamino]-3,3-dimethyl-1,3-dihydro-indol-2-one]
5 | < 100 | CC1(C)C(=O)Nc2cc(Nc3nc4c(N5CCC6(CCC(=O)N6)CC5)nccn4n3)ccc21 [E35, 8-[2-(3,3-dimethyl-2-oxo-2,3-dihydro-1H-indol-6-ylamino)-[1,2,4]triazolo[1,5-a]pyrazin-8-yl]-1,8-diaza-spiro[4.5]decan-2-one]
6 | 300 to 3000 | CC1(C)CCCc2ccc(-c3nccn4nc(Nc5ccc6c(c5)NC(=O)C6(C)C)nc34)cc21 [E146, 6-[8-(8,8-dimethyl-5,6,7,8-tetrahydro-naphthalen-2-yl)-[1,2,4]triazolo[1,5-a]pyrazin-2-ylamino]-3,3-dimethyl-1,3-dihydro-indol-2-one]
7 | < 100 | CC1(C)C(=O)Nc2cc(Nc3nc4c(-c5cnc6ccccc6c5)nccn4n3)ccc21 [E115, 3,3-Dimethyl-6-(8-quinolin-3-yl-[1,2,4]triazolo[1,5-a]pyrazin-2-ylamino)-1,3-dihydro-indol-2-one]
8 | 100 to 300 | CN1CCC(C)(C)c2cc(-c3nccn4nc(Nc5ccc6c(c5)NC(=O)C6(C)C)nc34)ccc21 [E143, 3,3-dimethyl-6-[8-(1,4,4-trimethyl-1,2,3,4-tetrahydro-quinolin-6-yl)-[1,2,4]triazolo[1,5-a]pyrazin-2-ylamino]-1,3-dihydro-indol-2-one]
9 | < 100 | CC1(C)C(=O)Nc2cc(Nc3nc4c(N5CCC(C(N)=O)C5)nccn4n3)ccc21 (stereo not drawn) [E3, 1-[2-(3,3-dimethyl-2-oxo-2,3-dihydro-1H-indol-6-ylamino)-[1,2,4]triazolo[1,5-a]pyrazin-8-yl]-pyrrolidine-3-carboxylic acid amide]
10 | < 100 | CC1(C)C(=O)Nc2cc(Nc3nc4c(-c5cnn(C(C)(C)C)c5)nccn4n3)ccc21 [E140, 6-[8-(1-tert-butyl-1H-pyrazol-4-yl)-[1,2,4]triazolo[1,5-a]pyrazin-2-ylamino]-3,3-dimethyl-1,3-dihydro-indol-2-one]
11 | < 100 | CC1(C)NC(=O)Nc2cc(Nc3nc4c(N5CCC6(CC5)CNC(=O)O6)nccn4n3)ccc21 [E45, 4,4-dimethyl-7-[8-(2-oxo-1-oxa-3,8-diaza-spiro[4.5]dec-8-yl)-[1,2,4]triazolo[1,5-a]pyrazin-2-ylamino]-3,4-dihydro-1H-quinazolin-2-one]
12 | 3000 to 50000 | COc1cc(Nc2nc3c(N4CCN(C(=O)OC(C)(C)C)CC4)nccn3n2)cc(OC)c1 [D1, 4-[2-(3,5-dimethoxy-phenylamino)-[1,2,4]triazolo[1,5-a]pyrazin-8-yl]-piperazine-1-carboxylic acid tert-butyl ester]
13 | 100 to 300 | CC1(C)C(=O)Nc2cc(Nc3nc4c(N5C[C@H](CO)C[C@H]5c5ccccc5)nccn4n3)ccc21 (single isomer, unassigned) [E98, 6-[8-((trans2)-4-hydroxymethyl-2-phenyl-pyrrolidin-1-yl)-[1,2,4]triazolo[1,5-a]pyrazin-2-ylamino]-3,3-dimethyl-1,3-dihydro-indol-2-one]
14 | 300 to 3000 | CC1(C)C(=O)Nc2cc(Nc3nc4c(N5CCCC5c5ccccc5)nccn4n3)ccc21 (stereo not drawn) [C100, 3,3-dimethyl-6-[8-(2-phenyl-pyrrolidin-1-yl)-[1,2,4]triazolo[1,5-a]pyrazin-2-ylamino]-1,3-dihydro-indol-2-one]
15 | < 100 | CC1(C)C(=O)Nc2cc(Nc3nc4c(N5CCc6ccc(C(N)=O)cc65)nccn4n3)ccc21 [E131, 1-[2-(3,3-Dimethyl-2-oxo-2,3-dihydro-1H-indol-6-ylamino)-[1,2,4]triazolo[1,5-a]pyrazin-8-yl]-2,3-dihydro-1H-indole-6-carboxylic acid amide]
16 | < 100 | CC1(C)C(=O)Nc2cc(Nc3nc4c(-c5c[nH]c6ccccc56)nccn4n3)ccc21 [E76, 6-[8-(1H-indol-3-yl)-[1,2,4]triazolo[1,5-a]pyrazin-2-ylamino]-3,3-dimethyl-1,3-dihydro-indol-2-one]
17 | < 100 | CC1(C)C(=O)Nc2cc(Nc3nc4c(-c5cnoc5)nccn4n3)ccc21 [E149, 6-(8-isoxazol-4-yl-[1,2,4]triazolo[1,5-a]pyrazin-2-ylamino)-3,3-dimethyl-1,3-dihydro-indol-2-one]
18 | 100 to 300 | CC1(C)C(=O)Nc2cc(Nc3nc4c(N5CC[C@]6(CNC(=O)C6)C5)nccn4n3)ccc21 [E52, 3,3-dimethyl-6-[8-((S)-8-oxo-2,7-diaza-spiro[4.4]non-2-yl)-[1,2,4]triazolo[1,5-a]pyrazin-2-ylamino]-1,3-dihydro-indol-2-one]
19 | 100 to 300 | CN(C)c1ccc2c(c1)N(c1nccn3nc(Nc4ccc5c(c4)NC(=O)C5(C)C)nc13)CC2 [E119, 6-[8-(6-dimethylamino-2,3-dihydro-indol-1-yl)-[1,2,4]triazolo[1,5-a]pyrazin-2-ylamino]-3,3-dimethyl-1,3-dihydro-indol-2-one]
20 | < 100 | CC1(C)CCNc2cc(Nc3nc4c(N5CCC6(CC5)CNC(=O)C6)nccn4n3)ccc21 [E77, 8-[2-(4,4-dimethyl-1,2,3,4-tetrahydro-quinolin-7-ylamino)-[1,2,4]triazolo[1,5-a]pyrazin-8-yl]-2,8-diaza-spiro[4.5]decan-3-one]
21 | 300 to 3000 | CC1(C)C(=O)Nc2cc(Nc3nc4c(C5CCCC5)nccn4n3)ccc21 [E66, 6-(8-cyclopentyl-[1,2,4]triazolo[1,5-a]pyrazin-2-ylamino)-3,3-dimethyl-1,3-dihydro-indol-2-one]
22 | 300 to 3000 | COc1cc(Nc2nc3c(N4CCC(NS(C)(=O)=O)CC4)nccn3n2)cc(OC)c1 [C53, N-{1-[2-(3,5-dimethoxy-phenylamino)-[1,2,4]triazolo[1,5-a]pyrazin-8-yl]-piperidin-4-yl}-methanesulfonamide]
23 | < 100 | CC1(C)C(=O)Nc2cc(Nc3nc4c(N5CCc6nc(N)ncc6C5)nccn4n3)ccc21 [E56, 6-[8-(2-amino-7,8-dihydro-5H-pyrido[4,3-d]pyrimidin-6-yl)-[1,2,4]triazolo[1,5-a]pyrazin-2-ylamino]-3,3-dimethyl-1,3-dihydro-indol-2-one]
24 | < 100 | CC1(C)C(=O)Nc2cc(Nc3nc4c(N5CCC6(CC5)NC(=O)NC6=O)nccn4n3)ccc21 [E28, 8-[2-(3,3-dimethyl-2-oxo-2,3-dihydro-1H-indol-6-ylamino)-[1,2,4]triazolo[1,5-a]pyrazin-8-yl]-1,3,8-triaza-spiro[4.5]decane-2,4-dione]
